Like-named read-outs stand apart in the source and are kept apart here.
Key:
α9-nAChR promoter = α9-nAChR promoter luciferase activity assay in MCF-7 cells; format: cell-based, human; conditions: 24-h treatment, Nic 10 μM or E2 10 nM, vehicle = one-fold
Experimental: All α9-nAChR promoter—luciferase gene fusions were made in the pGL3-Basic vector (Promega, Madison, Wis., USA) by introducing the appropriate α9-nAChR promoter fragments into the polylinker upstream of the luciferase gene. These fragments were generated with restriction enzymes and cloned directly into pGL3-Basic or subcloned first in pBluescript and then transferred to pGL3-Basic. Deletion analysis of the most promoter-proximal region was performed by generating either appropriate restriction enzyme fragments or PCR fragments with suitable sense oligonucleotides and an antisense primer (5′-[…]-3′ (SEQ ID NO:1)) that anneals to the pGL3-Basic vector downstream of the site of transcription initiation.
MCF-7 cells were plated in 6-well plates. Cells were transiently cotransfected the next day with 1.5 μg of PGL3-Basic plasmid containing the full-length α9-nAChR promoter and 0.1 μg of the RLTK plasmid (Promega) using an MP-100 microporator (Digital Bio), according to the manufacturer's instructions. After incubation for 24 h, the medium was changed to culture medium containing 10% FBS or 0.1% FB S with or without Nic. Cells were lysed 24 h later with 1× Reporter Lysis Buffer (Promega) and stored frozen at −20° C. overnight. Luciferase activity was determined by testing 50 μL of the cell lysate and 50 μL of the Luciferase Assay Reagent (Promega) using a HIDEX Chameleon Microplate Reader. Relative luciferase units were normalized to renilla luciferase from the same cell lysates. Each luciferase assay experiment was performed three times.

α9-nAChR protein = α9-nAChR protein levels by immunoblotting in MCF-7 cells; format: cell-based, human
Experimental: (§1) Human mammary gland epithelial adenocarcinomas (MCF7, MDA-MB-231, AU-565, MDA-MB-453, and BT-483) and normal human mammary gland epithelial fibrocystic cell lines (MCF-10A and HBL-100) were purchased from ATCC (American Type Culture Collection, Manassas, Va., USA). MCF-7, MDA-MB-231, and MDA-MB-453 cells were maintained in DMEM, whereas BT-483 cells were maintained in RPMI-1640. Cell growth, proliferation, and viability were determined by the 3-(4,5-dimethylthiazol-2-yl)-2,5-diphenyltetrazolium (MTT) assay. The formazan product was measured by absorbance at 540 nm.
(§2) To prepare protein samples, cells were washed once with ice-cold PBS and lysed on ice in cell lysis buffer (50 mM Tris-HCl, pH 8.0, 120 mM […], 0.5% Nonidet P-40, 100 mM sodium fluoride, and 200 μM sodium orthovanadate) containing protease inhibitors as described previously (Shih, Y. L., Liu, H. C., Chen, C. S., Hsu, C. H. et al., J. Agric. Food Chem. 2010, 58, 235-241). Protein (50 μg) from each sample was resolved by 12% SDS-polyacrylamide gel electrophoresis, transferred, and analyzed by Western blotting. Antibodies were purchased from the following vendors: anti-total AKT and protein A/G agarose beads were obtained from Santa Cruz Biotechnology (Santa Cruz, Calif., USA); anti-GAPDH and anti-α9-nAChR antibodies were from Abcam (Cambridge, UK); antiphospho AKT (Ser^473), anti-c-Jun, and anti-c-Fos were from Cell Signaling Technology (Beverly, Mass., USA). The secondary antibodies, alkaline phosphatase-coupled anti-mouse, and anti-rabbit IgG were purchased from Santa Cruz Biotechnology. The specific protein complexes were identified with the chromogenic substrates nitro blue tetrazolium, and 5-bromo-4-chloro-3-indolyl-phosphate from KPL (Gaithersburg, Md., USA). In each experiment, proteins were also probed with anti-GAPDH antibodies as a protein-loading control.

α9-nAChR mRNA = α9-nAChR mRNA by RT-PCR / real-time PCR in MCF-7 cells; format: cell-based, human
Experimental: Total RNA was isolated from human cell lines using TRIzol (Invitrogen, Carlsbad, Calif., USA) according to the manufacturer's protocol. The α9-nAChR subunit-specific primers were synthesized by MB Mission BioTech (Taipei, Taiwan) as described in the previous reports (Chen, C. S., Lee, C. H., Hsieh, C. D., Ho, C. T. et al., Breast Cancer Res. Treat. 2010; Shih, Y. L., Liu, H. C., Chen, C. S., Hsu, C. H. et al., J. Agric. Food Chem. 2010, 58, 235-241). The PCR amplicons were analyzed on 1.2% agarose gels (Amresco, Solon, Ohio, USA) stained with ethidium bromide. The α9-nAChR mRNA intensity was measured and normalized to β-glucuronidase expression. Pictures of the bands were taken using an INFINITY-α digital imaging system (Vilber Lourmat, France), and band intensities were determined using PhotoCapt Version 11.01 software.

[1] = cited from earlier work
AP-1 = assay: ChIP assay of AP-1 binding to the α9-nAChR promoter in MCF-7 cells; format: cell-based, human; conditions: 24 h after Nic 10 μM
Experimental: Chromatin immunoprecipitation (ChIP) assays of cultured cells were performed as described previously (Chen, C. S., Lee, C. H., Hsieh, C. D., Ho, C. T. et al., Breast Cancer Res. Treat. 2010; Shih, Y. L., Liu, H. C., Chen, C. S., Hsu, C. H. et al., J. Agric. Food Chem. 2010, 58, 235-241). Briefly, after various regimens of Nic treatment, the cells were fixed with a final concentration of 1% formaldehyde directly added to the cell culture medium at 25° C. for 15 min. The crosslinking reaction was terminated with 0.125 M glycine for 5 min, and the cells were collected into a new Eppendorf tube. The cell lysate was sonicated three times with 10 s bursts to yield input DNA enriched for fragments around 1000 bp in size. A c-Jun (AP-1) antibody (Santa Cruz Biotechnology) was used for the immunoprecipitation reactions. Primers, which detect the a9-nAChR promoter regions, amplified a region from −960 to −1 for 32 cycles (forward: 5′-ATGCAATG CAAGCCTGAGCT-3′ (SEQ ID NO:2) and reverse: 5′-TATA-[…]-3′ (SEQ ID NO:3)). The PCR products were then separated and analyzed by agarose gel electrophoresis.

MCF-7 cells = assay: Cell proliferation (MTT assay) in MCF-7 cells; format: cell-based, human; conditions: Nic 10 μM
Experimental: as §1

p-AKT (Ser^473) = assay: phosphorylated AKT by immunoblotting in MCF-7 cells; format: cell-based, human; conditions: Nic 10 μM or E2 10 nM, 24 h
Experimental: as §2

MCF-10A cells = assay: Cell proliferation (MTT assay) in normal MCF-10A cells; format: cell-based, human; conditions: Nic 10 μM or EGCG 10-25 μM
Experimental: as §1

α9-nAChR = biological target: T1, α9-nAChR (Homo sapiens, UniProt Q9UGM1); conditions: MCF-7 cells, previous results, cited from earlier work
T1 construct: breast cancer cell proliferation induced by Nic could be mediated through endogenous α9-nAChR; endogenous in cells; host or cells: MCF-7 cell monolayers: wild type, scramble control (Sc) and α9-nAChR siRNA knockdown (Si) clones
T1 sequence (Q9UGM1 26-479 limits assumed): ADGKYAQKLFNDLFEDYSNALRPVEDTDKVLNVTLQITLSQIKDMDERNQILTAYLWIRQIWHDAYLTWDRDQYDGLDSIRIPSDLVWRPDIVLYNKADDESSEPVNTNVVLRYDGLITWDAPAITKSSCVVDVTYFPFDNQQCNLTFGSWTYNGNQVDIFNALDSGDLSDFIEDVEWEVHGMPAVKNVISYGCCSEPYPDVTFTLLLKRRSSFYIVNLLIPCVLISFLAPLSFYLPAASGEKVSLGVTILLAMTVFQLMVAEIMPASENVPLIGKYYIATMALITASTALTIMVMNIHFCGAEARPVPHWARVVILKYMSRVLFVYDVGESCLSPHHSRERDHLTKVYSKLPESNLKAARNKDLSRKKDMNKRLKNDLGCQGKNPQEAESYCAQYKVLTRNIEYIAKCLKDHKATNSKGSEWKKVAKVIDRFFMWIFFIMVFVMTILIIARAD

## C[C@]12CC[C@@H]3c4ccc(O)cc4CC[C@H]3[C@@H]1CC[C@@H]2O [E2, estradiol]
α9-nAChR promoter
  induction of full-length α9-nAChR promoter luciferase activity: 2.3 fold

## O=c1cc(N2CCOCC2)oc2c(-c3ccccc3)cccc12 [LY294002]
α9-nAChR protein; MCF-7, 24 h pretreatment (LY294002 25 μM or EGCG 10 μM), then Nic 10 μM or E2 10 nM 24 h
  Nic- and E2-induced upregulation of α9-nAChR protein after inhibitor pretreatment: not significantly inhibited

## CN(CCCC(=O)c1cccnc1)N=O [NNK, 4-(methylnitrosamino)-1-(3-pyridyl)-1-butanone]
α9-nAChR protein; MCF-7, Nic 0.1-10 μM, NNK 0.1-10 μM or E2 1-200 nM, 24 h, dose-dependent
  α9-nAChR protein level: significantly induced

## CN1CCCC1c1cccnc1 (centres unmarked) [Nic, nicotine]
α9-nAChR mRNA; Nic 1 μM time course
  time after Nic treatment at which significant increase in α9-nAChR mRNA level was detected: 6 h
α9-nAChR mRNA; Nic 10 μM or E2 10 nM, 24 h
  α9-nAChR mRNA expression (real-time PCR): significantly upregulated
[1]; in vivo
  Nic concentration in gastric juices: > 800 ng/mL
  Nic concentration in plasma: about 15 ng/mL
  Nic concentration in saliva: > 1300 ng/mL
  saliva concentration of nicotine: 1 mM
  serum concentration of nicotine: 10 to 100 µM
  steady-state serum concentration of nicotine: 200 nM
[1]; studies using ^14C-Nic
  inhaled Nic absorbed systemically during smoking: 80-90%
AP-1
  binding of AP-1 to the α9-nAChR promoter: increased binding
α9-nAChR promoter
  induction of full-length α9-nAChR promoter luciferase activity: 41.8 fold
MCF-7 cells; MCF-7 (C) and (Sc)
  cellular proliferation rates in wild-type (C) and scrambled vector control (Sc) cells: significantly increased
MCF-7 cells; MCF-7, 24 h
  breast cancer cell growth: significantly stimulated
MCF-7 cells; MCF-7 α9-nAChR (Si)
  Nic-induced growth effects in α9-nAChR siRNA knockdown (Si) cells: almost completely attenuated
p-AKT (Ser^473)
  levels of p-AKT (Ser^473): significantly increased
MCF-10A cells
  cell number in normal breast epithelial cells: no changes
α9-nAChR protein
  time after Nic treatment at which significant increase in α9-nAChR protein level was detected: 6 h
  α9-nAChR protein level: significantly induced

## CN1CCCC1c1cccnc1 [[^3H]-Nic, L-(−)-[N-methyl-^3H]-Nic]
α9-nAChR; read-out: dissociation constant (Kd) of [^3H]-Nic binding
  Kd: 3 nM

## [3H]CN1CCCC1c1cccnc1 [[^3H]-Nic, L-(−)-[N-methyl-^3H]-Nic]
α9-nAChR
  time at which maximum binding activity is attained: 60 min

Reference: patent publication US20120208873A1, “TEA POLYPHENOLS PRODUCTS FOR CEASING SMOKING AND TREATING AND/OR PREVENTING NICOTINE OR NICOTINE-DERIVED COMPOUNDS OR ESTROGEN INDUCED BREAST CANCER” (priority 2011, published 2012)
